From patent publication US11851411B2, “Herbicidal compounds” (SYNGENTA CROP PROTECTION AG, priority 2018, dated 2023)

Tests used:
Format in all cases: in vivo
[1] = test system: Abutilon theophrasti (ABUTH); experiment: Glasshouse herbicide test, post-emergence; details: POST Application; 500 g/h; evaluated after 13 days
Method: (§1) Seeds of a variety of test species are shown in standard soil in pots (Lolium perenne (LOLPE), Amaranthus retoflexus (AMARE), Abutilon theophrasti (ABUTH), Setaria faberi (SETFA), Echinochloa crus-galli (ECHCG), Ipomoea hederacea (IPOHE)). After cultivation for one day (pre-emergence) or after 8 days cultivation (post-emergence) under controlled conditions in a glasshouse (at 24/16° C., day/night; 14 hours light; 65% humidity), the plants are sprayed with an aqueous spray solution derived from the formulation of the technical active ingredient in acetone/water (50:50) solution containing 0.5% Tween 20 (polyoxyethelyene sorbitan monolaurate, CAS RN 9005-64-5). Compounds are applied at 500 g/h. The test plants are then grown in a glasshouse under controlled conditions in a glasshouse (at 24/16° C., day/night; 14 hours light; 65% humidity) and watered twice daily. After 13 days for pre and post-emergence, the test is evaluated for the percentage damage caused to the plant. The biological activities are shown in the following table on a five point scale (5=80-100%; 4=60-79%; 3=40-59%; 2=20-39%; 1=0-19%).

[2] = test system: Amaranthus retoflexus (AMARE); experiment: Glasshouse herbicide test, post-emergence; details: POST Application; 500 g/h; evaluated after 13 days
Method: as §1

[3] = test system: Echinochloa crus-galli (ECHCG); experiment: Glasshouse herbicide test, post-emergence; details: POST Application; 500 g/h; evaluated after 13 days
Method: as §1

[4] = test system: Ipomoea hederacea (IPOHE); experiment: Glasshouse herbicide test, post-emergence; details: POST Application; 500 g/h; evaluated after 13 days
Method: as §1

Setaria faberi (SETFA) [5] = experiment: Glasshouse herbicide test, post-emergence; details: POST Application; 500 g/h; evaluated after 13 days
Method: as §1

[6] = test system: Abutilon theophrasti (ABUTH); experiment: Glasshouse herbicide test, pre-emergence; details: PRE Application; 500 g/h; evaluated after 13 days
Method: as §1

[7] = test system: Amaranthus retoflexus (AMARE); experiment: Glasshouse herbicide test, pre-emergence; details: PRE Application; 500 g/h; evaluated after 13 days
Method: as §1

[8] = test system: Echinochloa crus-galli (ECHCG); experiment: Glasshouse herbicide test, pre-emergence; details: PRE Application; 500 g/h; evaluated after 13 days
Method: as §1

[9] = test system: Ipomoea hederacea (IPOHE); experiment: Glasshouse herbicide test, pre-emergence; details: PRE Application; 500 g/h; evaluated after 13 days
Method: as §1

Setaria faberi (SETFA) [10] = experiment: Glasshouse herbicide test, pre-emergence; details: PRE Application; 500 g/h; evaluated after 13 days
Method: as §1

SMILES | percentage damage caused to the plant, five point scale, ABUTH [1] | percentage damage caused to the plant, five point scale, AMARE [2] | percentage damage caused to the plant, five point scale, ECHCG [3] | percentage damage caused to the plant, five point scale, IPOHE [4] | percentage damage caused to the plant, five point scale, SETFA (Setaria faberi (SETFA) [5]) | percentage damage caused to the plant, five point scale, ABUTH [6] | percentage damage caused to the plant, five point scale, AMARE [7] | percentage damage caused to the plant, five point scale, ECHCG [8] | percentage damage caused to the plant, five point scale, IPOHE [9] | percentage damage caused to the plant, five point scale, SETFA (Setaria faberi (SETFA) [10])
CON(C(=O)OC(C)(C)C)c1c(C(F)(F)F)ccc(C(=O)Nc2nnnn2C)c1Cl [Compound 1.025] | 5 (5=80-100%) | 5 (5=80-100%) | 5 (5=80-100%) | 5 (5=80-100%) | 5 (5=80-100%) | 5 (5=80-100%) | 5 (5=80-100%) | 5 (5=80-100%) | 5 (5=80-100%) | 5 (5=80-100%)
CCS(=O)(=O)c1ccc(C(=O)Nc2nnnn2C)c(Cl)c1N(C)OC [Compound 1.062] | 5 (5=80-100%) | 5 (5=80-100%) | 5 (5=80-100%) | 5 (5=80-100%) | 5 (5=80-100%) | 5 (5=80-100%) | 5 (5=80-100%) | 5 (5=80-100%) | 5 (5=80-100%) | 5 (5=80-100%)
CON(C(C)=O)c1c(C(F)(F)F)ccc(C(=O)Nc2nnc(C)o2)c1Cl [Compound 2.001] | 5 (5=80-100%) | 5 (5=80-100%) | 5 (5=80-100%) | 5 (5=80-100%) | 5 (5=80-100%) | 5 (5=80-100%) | 5 (5=80-100%) | 5 (5=80-100%) | 4 (4=60-79%) | 5 (5=80-100%)
CC(C)ON(C)c1c(S(C)(=O)=O)ccc(C(=O)Nc2nnnn2C)c1Cl [Compound 1.057] | 5 (5=80-100%) | 5 (5=80-100%) | 5 (5=80-100%) | 5 (5=80-100%) | 5 (5=80-100%) | 5 (5=80-100%) | 5 (5=80-100%) | 5 (5=80-100%) | 5 (5=80-100%) | 5 (5=80-100%)
CCC(=O)N(OC)c1c(C(F)(F)F)ccc(C(=O)Nc2nnc(C)o2)c1Cl [Compound 2.018] | 5 (5=80-100%) | 5 (5=80-100%) | 5 (5=80-100%) | 5 (5=80-100%) | 5 (5=80-100%) | 5 (5=80-100%) | 5 (5=80-100%) | 5 (5=80-100%) | 4 (4=60-79%) | 5 (5=80-100%)
CCn1nnnc1NC(=O)c1ccc(S(C)(=O)=O)c(N(C)OC)c1Cl [Compound 1.044] | 5 (5=80-100%) | 5 (5=80-100%) | 5 (5=80-100%) | 5 (5=80-100%) | 5 (5=80-100%) | 5 (5=80-100%) | 5 (5=80-100%) | 5 (5=80-100%) | 5 (5=80-100%) | 5 (5=80-100%)
CCCS(=O)(=O)c1ccc(C(=O)Nc2nnnn2C)c(Cl)c1N(C)OC [Compound 1.054] | 5 (5=80-100%) | 5 (5=80-100%) | 5 (5=80-100%) | 5 (5=80-100%) | 5 (5=80-100%) | 5 (5=80-100%) | 5 (5=80-100%) | 5 (5=80-100%) | 5 (5=80-100%) | 5 (5=80-100%)
CCCON(C)c1c(S(C)(=O)=O)ccc(C(=O)Nc2nnnn2C)c1Cl [Compound 1.056] | 5 (5=80-100%) | 5 (5=80-100%) | 5 (5=80-100%) | 5 (5=80-100%) | 5 (5=80-100%) | 5 (5=80-100%) | 5 (5=80-100%) | 5 (5=80-100%) | 5 (5=80-100%) | 5 (5=80-100%)
CON(C(=O)OC(C)(C)C)c1c(C(F)(F)F)ccc(C(=O)Nc2nnc(C)o2)c1Cl [Compound 2.009, tert-butyl N-[2-chloro-3-[(5-methyl-1,3,4-oxadiazol-2-yl)carbamoyl]-6-(trifluoromethyl)phenyl]-N-methoxy-carbamate] | 3 (3=40-59%) | 3 (3=40-59%) | 5 (5=80-100%) | 3 (3=40-59%) | 5 (5=80-100%) | 3 (3=40-59%) | 5 (5=80-100%) | 5 (5=80-100%) | 1 (1=0-19%) | 2 (2=20-39%)
CON(C(C)=O)c1c(S(C)(=O)=O)ccc(C(=O)Nc2nnnn2C)c1Cl [Compound 1.007] | 5 (5=80-100%) | 5 (5=80-100%) | 5 (5=80-100%) | 5 (5=80-100%) | 5 (5=80-100%) | 5 (5=80-100%) | 5 (5=80-100%) | 5 (5=80-100%) | 5 (5=80-100%) | 3 (3=40-59%)
